Test results: US20250325505A1, “COMPOSITION COMPRISING CREATINE FOR USE IN THE TREATMENT OF BREATHING DIFFICULTIES” (Alzchem Trostberg GmbH, priority 2022, published 2025)
Where two headings read alike, the source gives them in different places.

Columns and labels:
Post-COVID patients [1] = assay: Multidimensional fatigue inventory test (MFI-20), Example 1; type: in vivo, human; settings: 4 g creatine monohydrate per day
Description: (§1) The patient-reported outcomes for COVID-19-related signs and symptoms (e.g., breathing difficulties, lung pain, body aches,) were evaluated with VAS scale Table 3). Fatigue, comprising the conditions of the group general fatigue, physical fatigue, metal fatigue, reduced activity, and reduced motivation, was evaluated with a multidimensional fatigue inventory test (MFI-20 test, Smets E. M. et al., J. Psychosom. Res. 1995, 39(3), 315).
Thus, the higher the score, the higher the respective symptom is experienced by the interviewed patient. As a consequence, the lower the value given, the better is the effect in mitigation of the respective symptom.

Post-COVID patients [2] = assay: Patient-reported COVID-19-related symptoms, VAS scale, Example 1; type: in vivo, human; settings: for Body Aches (VAS scale) / Breathing difficulties (VAS scale) / Lung pain (VAS scale): 4 g creatine monohydrate per day
Description: as §1

Post-COVID patients [3] = assay: Side effects, Example 1; type: in vivo, human; settings: 4 g creatine monohydrate per day
Description: The number of participants who were randomly assigned, received intended treatment, and were analyzed for the primary outcome at this time was twelve in total, six in experimental group and six in control group.

Post-COVID patients [4] = assay: Multidimensional fatigue inventory test (MFI-20), Example 2; type: in vivo, human; settings: 4 g creatine monohydrate per day plus breathing exercise
Description: as §1

Post-COVID patients [5] = assay: Patient-reported symptoms, VAS scale, Example 2; type: in vivo, human; settings: for Breathing difficulties (VAS scale) / Lung malaise (VAS scale) / Lung pain (VAS scale): 4 g creatine monohydrate per day plus breathing exercise
Description: as §1

Post-COVID patients [6] = assay: Side effects, Example 2; type: in vivo, human; settings: 4 g creatine monohydrate per day plus breathing exercise, 3-month
Source text: The changes in study outcomes during the trial are depicted in Table 5 and 6.

Post-COVID patients [7] = assay: Time to exhaustion, incremental treadmill test, creatine vs placebo; type: in vivo, human; settings: creatine vs placebo study; for Time to exhaustion: treadmill
Description: (§2) The time to exhaustion of the patients was evaluated by an incremental test until exhaustion on a motorized treadmill. Speed and gradient of the treadmill are increased every third minute, starting at 2.7 km/h (1.7 miles per hour) at a 10% gradient and rising at stage 7 to 9.7 km/h (6 miles per hour) at 22% gradient (Will P. M. and Walter J. D., Am Heart. J., 1999 December, 138, 1033).

Post-COVID patients [8] = assay: Time to exhaustion, incremental treadmill test, creatine plus breathing exercise; type: in vivo, human; settings: for Time to exhaustion: treadmill
Description: as §2

PCFS patients [9] = assay: Fatigue scores, Example 4; type: in vivo, human; set-up: key to General fatigue score / Physical fatigue score / Mental fatigue score / Reduced activity score / Reduced motivation score: MFI-20 multidimensional fatigue inventory subscale scores; settings: for General fatigue score / Mental fatigue score / Physical fatigue score / Reduced activity score / Reduced motivation score: creatine 8 g per day or glucose 3 g per day
Description: as §1, with “315). […]” for “315).”

PCFS patients [10] = assay: Patient-reported symptoms, VAS scale, Example 4; type: in vivo, human; settings: for Body Aches (VAS scale) / Breathing difficulties (VAS scale) / Lung pain (VAS scale): creatine 8 g per day or glucose 3 g per day
Description: The patient-reported outcomes for COVID-19-related signs and symptoms (e.g., breathing difficulties, lung pain, body aches and post viral fatigue) were evaluated with VAS scale (Tables 10 and 11).
The Cohen's effect sizes (d) in the creatine group for all outcomes evaluated and reproduced in Table 12 and FIG. 2. The effects are classified as small (d=0.2), medium (d=0.5, dashed line), and large (d≥0.8). Missing values are due to a statistical limitation in calculating effect sizes when pre and/or post values equal zero. Abbreviations: GF, general fatigue; PF, physical fatigue; RM, reduced motivation; RA, reduced activity; MF, mental fatigue; BOA, body aches; BRD, breathing difficulties; LUP, lung pain; and MAL, malaise.

[11] = human, in vivo
[12] = both, human, in vivo, 3 months
[13] = normal healthy population after creatine supplementation; cited from earlier work
[14] = creatine group, 8 g per day, 8 weeks

## CN(CC(=O)O)C(=N)N.O [Creatine, creatine monohydrate]
Post-COVID patients [1]; 3 months
  General fatigue score: 11.3
  Mental fatigue score: 11.2
  Physical fatigue score: 12.7
  Reduced activity score: 12.0
  Reduced motivation score: 13.0
Post-COVID patients [1]; 6 months
  General fatigue score: 12.7
  Mental fatigue score: 10.5
  Physical fatigue score: 13.2
  Reduced activity score: 12.5
  Reduced motivation score: 12.5
Post-COVID patients [1]; Baseline
  General fatigue score: 12.0
  Mental fatigue score: 12.3
  Physical fatigue score: 13.5
  Reduced activity score: 11.5
  Reduced motivation score: 13.0
Post-COVID patients [2]; 3 months
  Body Aches (VAS scale): 1.2
  Breathing difficulties (VAS scale): 0.5
  Lung pain (VAS scale): 0.5
Post-COVID patients [2]; 6-months
  Body Aches (VAS scale): 0.0
  Breathing difficulties (VAS scale): 0.0
  Lung pain (VAS scale): 0.0
Post-COVID patients [2]; Baseline
  Body Aches (VAS scale): 4.5
  Breathing difficulties (VAS scale): 2.3
  Lung pain (VAS scale): 2.3
Post-COVID patients [2]; after 3 months
  Body aches reduced: 73.3%
  Lung pain: reduced significantly
  breathing difficulties (dyspnea) reduced: 78%
Post-COVID patients [2]; at 3-month
  Cohen's effect size (d), body aches: 1.77
  Cohen's effect size (d), breathing difficulties: 0.89
Post-COVID patients [2]; at 6-month
  Cohen's effect size (d), body aches: 3.03
  Cohen's effect size (d), breathing difficulties: 1.25
  Cohen's effect size (d), lung pain: 0.99
Post-COVID patients [3]
  side effects: no major side effects
Post-COVID patients [4]; 3 months
  General fatigue score: 12.3
  Mental fatigue score: 11.5
  Physical fatigue score: 12.2
  Reduced activity score: 12.8
  Reduced motivation score: 12.8
Post-COVID patients [4]; Baseline
  General fatigue score: 11.5
  Mental fatigue score: 11.8
  Physical fatigue score: 12.3
  Reduced activity score: 12.5
  Reduced motivation score: 13.5
Post-COVID patients [5]; 3-month follow up
  Cohen's effect size for lung malaise: 2.97
Post-COVID patients [5]; 3 months
  Breathing difficulties (VAS scale): 0.0
  Lung malaise (VAS scale): 1.0
  Lung pain (VAS scale): 0.0
Post-COVID patients [5]; Baseline
  Breathing difficulties (VAS scale): 1.5
  Lung malaise (VAS scale): 6.3
  Lung pain (VAS scale): 0.5
Post-COVID patients [5]; creatine plus breathing exercise, 3-month follow up
  lung malaise reduced: 84%
Post-COVID patients [6]
  side effects / tolerability: well-tolerated
Post-COVID patients [7]
  stage achieved in the treadmill test: 6
Post-COVID patients [7]; matches 6-months vs baseline of Table 7
  time to exhaustion increased: 7.3%
Post-COVID patients [7]; 3-months
  Time to exhaustion: 922 s
Post-COVID patients [7]; 6-months
  Time to exhaustion: 959 s
Post-COVID patients [7]; Baseline
  Time to exhaustion: 894 s
Post-COVID patients [8]; creatine monohydrate plus breathing exercise
  Cohen's effect size for time to exhaustion: 0.36
Post-COVID patients [8]; creatine plus breathing exercise study
  stage reached in the treadmill test: 6
Post-COVID patients [8]; creatine plus breathing exercise study, 3-months
  Time to exhaustion: 921 s
Post-COVID patients [8]; creatine plus breathing exercise study, Baseline
  Time to exhaustion: 867 s
Post-COVID patients [8]; experimental group, post-administration (3 months)
  mean time to exhaustion improved: 54 s
PCFS patients [9]; 8 weeks
  General fatigue score: 12.0
  Mental fatigue score: 12.2
  Physical fatigue score: 11.4
  Reduced activity score: 12.0
  Reduced motivation score: 10.3
PCFS patients [9]; Baseline
  General fatigue score: 12.6
  Mental fatigue score: 13.4
  Physical fatigue score: 12.2
  Reduced activity score: 13.6
  Reduced motivation score: 11.6
PCFS patients [9]; [14]
  Cohen's effect (d), General Fatigue: 0.44
  Cohen's effect (d), Physical Fatigue (PF): 0.83
PCFS patients [10]; 8-week follow-up
  Cohen's effect size (d) for reducing body aches: > 0.80
  Cohen's effect size (d) for reducing breathing difficulties: > 0.80
  Cohen's effect size (d) for reducing lung malaise: > 0.80
PCFS patients [10]; after 8 weeks
  Body aches reduced: 71%
  Lung pain reduced: 67%
  breathing difficulties (dyspnea) reduced: 85%
PCFS patients [10]; 8 weeks
  Body Aches (VAS scale): 0.8
  Breathing difficulties (VAS scale): 0.4
  Lung pain (VAS scale): 0.6
PCFS patients [10]; Baseline
  Body Aches (VAS scale): 2.8
  Breathing difficulties (VAS scale): 2.6
  Lung pain (VAS scale): 1.8
PCFS patients [10]; [14]
  Cohen's effect (d), Body aches (BOA): 1.11
  Cohen's effect (d), Lung pain (LUP): 0.64
[11]
  Total creatine, Left paracentral grey matter: 6.7 ± 0.6 mM
  Total creatine, Right paracentral grey matter: 6.8 ± 0.4 mM
[11]; 3 months
  Cohen's effect size (d), increased brain creatine level in left parietal white matter: 0.92
  Cohen's effect size (d), increased brain creatine level in parietal white matter: 1.99
  Cohen's effect size (d), increased brain creatine level in right frontal white matter: 1.25
  Cohen's effect size (d), increased brain creatine level in right paracentral grey matter: 0.88
  Cohen's effect size (d), increased brain creatine level in right parietal messial grey matter: 1.17
  Cohen's effect size (d), increased brain creatine level in thalamus: 0.82
  Total creatine, Left paracentral grey matter: 7.3 ± 0.9 mM
  Total creatine, Right paracentral grey matter: 7.2 ± 0.5 mM
[11]; 6 months
  Cohen's effect size (d), increased brain creatine level in left parietal messial grey matter: 0.84
  Cohen's effect size (d), increased brain creatine level in left parietal white matter: 1.17
  Cohen's effect size (d), increased brain creatine level in parietal white matter: 1.74
  Cohen's effect size (d), increased brain creatine level in right frontal white matter: 1.32
  Cohen's effect size (d), increased brain creatine level in right parietal messial grey matter: 1.06
  Total creatine, Left paracentral grey matter: 7.1 ± 0.7 mM
  Total creatine, Right paracentral grey matter: 7.0 ± 0.7 mM
[12]
  Cohen's effect size (d) for creatine increment, vastus medialis muscle: 0.77
[13]
  increase of creatine in the brain: ≤ 5%
